Test system: FGFR3 enzyme
Test: FGFR Enzymatic Assay (FRET peptide phosphorylation), FGFR3
Type: biochemical
Settings: IC50 ratio showing FGFR3 selectivity; Table 2A, pre-incubated for 4 hours
Method: The inhibitor potency of the exemplified compounds was measured in an enzyme assay that measures peptide phosphorylation using FRET measurements to detect product formation. Inhibitors were serially diluted in DMSO and a volume of 0.5 μL was transferred to the wells of a 384-well plate.
GraphPad prism3 was used to analyze the data.

Q: Which FGFR1/FGFR3 does the source give for COc1cnc(N2C(=O)N(c3c(F)c(OC)cc(OC)c3F)Cc3cnc(-c4cn(C)nc4C)cc32)cn1 [Example 112, 3-(2,6-difluoro-3,5-dimethoxyphenyl)-7-(1,3-dimethyl-1H-pyrazol-4-yl)-1-(5-methoxypyrazin-2-yl)-3,4-dihydropyrido[4,3-d]pyrimidin-2(1H)-one] here?
A: >3

Q: What about the FGFR4/FGFR3 of the same compound?
A: >5

Q: With CCN1C(=O)N(c2c(F)c(OC)cc(OC)c2F)Cc2cnc(-c3ccc(C4(C#N)CC4)cc3)cc21 [Example 183, 1-(4-(3-(2,6-difluoro-3,5-dimethoxyphenyl)-1-ethyl-2-oxo-1,2,3,4-tetrahydropyrido[4,3-d]pyrimidin-7-yl)phenyl)cyclopropanecarbonitrile] as the compound, how does the FGFR1/FGFR3 read?
A: >3

Q: What about the FGFR4/FGFR3 of the same compound?
A: >10

Q: What does the source list for COc1cc(OC)c(F)c(N2Cc3cnc(-c4cn(C)nc4C)cc3N(C3CCN(C(C)=O)CC3)C2=O)c1F [Example 43, 1-(1-acetylpiperidin-4-yl)-3-(2,6-difluoro-3,5-dimethoxyphenyl)-7-(1,3-dimethyl-1H-pyrazol-4-yl)-3,4-dihydropyrido[4,3-d]pyrimidin-2(1H)-one]?
A: FGFR1/FGFR3: >10; FGFR4/FGFR3: >5

Q: How did the FGFR1/FGFR3 turn out when COc1cc(OC)c(F)c(N2Cc3cnc(-c4cn(C)nc4C)cc3N(C[C@H]3CCOC3)C2=O)c1F [Example 108, (R)-3-(2,6-difluoro-3,5-dimethoxyphenyl)-7-(1,3-dimethyl-1H-pyrazol-4-yl)-1-((tetrahydrofuran-3-yl)methyl)-3,4-dihydropyrido[4,3-d]pyrimidin-2(1H)-one] was run?
A: >3

Q: And the FGFR4/FGFR3?
A: >3

Q: For CCN1C(=O)N(c2c(F)c(OC)cc(OC)c2F)Cc2cnc(-c3cn(CC)nc3C)cc21 [Example 168, 3-(2,6-difluoro-3,5-dimethoxyphenyl)-1-ethyl-7-(1-ethyl-3-methyl-1H-pyrazol-4-yl)-3,4-dihydropyrido[4,3-d]pyrimidin-2(1H)-one], which FGFR1/FGFR3 is on record?
A: >5

Q: And the FGFR4/FGFR3?
A: >3

Q: Which FGFR1/FGFR3 does the source give for COc1cc(OC)c(F)c(N2Cc3cnc(-c4cn(C)nc4C)cc3N(C3CC3)C2=O)c1F [Example 83, 1-cyclopropyl-3-(2,6-difluoro-3,5-dimethoxyphenyl)-7-(1,3-dimethyl-1H-pyrazol-4-yl)-3,4-dihydropyrido[4,3-d]pyrimidin-2(1H)-one] here?
A: >5

Q: What about the FGFR4/FGFR3 of the same compound?
A: >5

Q: How did the FGFR1/FGFR3 turn out when COc1cc(OC)c(F)c(N2Cc3cnc(-c4cn(CC#N)nc4C)cc3C3(CC3)C2=O)c1F [Example 153, 2-(4-(2′-(2,6-difluoro-3,5-dimethoxyphenyl)-3′-oxo-2′,3′-dihydro-1′H-spiro[cyclopropane-1,4′-[2,7]naphthyridine]-6′-yl)-3-methyl-1H-pyrazol-1-yl)acetonitrile] was run?
A: >5

Q: And the FGFR4/FGFR3?
A: >3

Q: How did the FGFR1/FGFR3 turn out when COc1cc(OC)c(F)c(N2Cc3cnc(-c4cn(CCC#N)nc4C)cc3C3(CC3)C2=O)c1F [Example 156, 3-(4-(2′-(2,6-difluoro-3,5-dimethoxyphenyl)-3′-oxo-2′,3′-dihydro-1′H-spiro[cyclopropane-1,4′-[2,7]naphthyridine]-6′-yl)-3-methyl-1H-pyrazol-1-yl)propanenitrile] was run?
A: >5

Q: What about the FGFR4/FGFR3 of the same compound?
A: >1

Q: For COc1cc(OC)c(F)c(N2Cc3cnc(-c4cn(C)nc4C)cc3C3(CC3)C2=O)c1F [Example 21, 2′-(2,6-difluoro-3,5-dimethoxyphenyl)-6′-(1,3-dimethyl-1H-pyrazol-4-yl)-1′,2′-dihydro-3′H-spiro[cyclopropane-1,4′-[2,7]naphthyridin]-3′-one], which FGFR1/FGFR3 is on record?
A: >5

Q: For CCCn1cc(N2C(=O)N(c3c(F)c(OC)cc(OC)c3F)Cc3cnc(-c4cn(C)nc4C)cc32)cn1 [Example 132, 3-(2,6-difluoro-3,5-dimethoxyphenyl)-7-(1,3-dimethyl-1H-pyrazol-4-yl)-1-(1-propyl-1H-pyrazol-4-yl)-3,4-dihydropyrido[4,3-d]pyrimidin-2(1H)-one], which FGFR1/FGFR3 is on record?
A: >3

Q: And the FGFR4/FGFR3?
A: >5

Q: With COc1cccc(N2C(=O)N(c3c(F)c(OC)cc(OC)c3F)Cc3cnc(-c4cn(C)nc4C)cc32)c1 [Example 109, 3-(2,6-difluoro-3,5-dimethoxyphenyl)-7-(1,3-dimethyl-1H-pyrazol-4-yl)-1-(3-methoxyphenyl)-3,4-dihydropyrido[4,3-d]pyrimidin-2(1H)-one] as the compound, how does the FGFR1/FGFR3 read?
A: >3

Q: And the FGFR4/FGFR3?
A: >10

Q: Which FGFR1/FGFR3 does the source give for COc1cc(OC)c(F)c(N2Cc3cnc(-c4cn(C)nc4C)cc3N(c3ccc4cn[nH]c4c3)C2=O)c1F [Example 133, 3-(2,6-difluoro-3,5-dimethoxyphenyl)-7-(1,3-dimethyl-1H-pyrazol-4-yl)-1-(1H-indazol-6-yl)-3,4-dihydropyrido[4,3-d]pyrimidin-2(1H)-one] here?
A: >3

Q: And the FGFR4/FGFR3?
A: >5

Q: Which FGFR1/FGFR3 does the source give for CCN1C(=O)N(c2c(F)c(OC)cc(OC)c2F)Cc2cnc(-c3ccc(C(=O)NC4CC4)nc3)cc21 [Example 176, N-cyclopropyl-5-(3-(2,6-difluoro-3,5-dimethoxyphenyl)-1-ethyl-2-oxo-1,2,3,4-tetrahydropyrido[4,3-d]pyrimidin-7-yl)picolinamide] here?
A: >10

Q: What about the FGFR4/FGFR3 of the same compound?
A: >5

Q: What does the source list for COc1cc(OC)c(F)c(N2Cc3cnc(-c4cn(C)nc4C)cc3N(C3CCCC3)C2=O)c1F [Example 32, 1-cyclopentyl-3-(2,6-difluoro-3,5-dimethoxyphenyl)-7-(1,3-dimethyl-1H-pyrazol-4-yl)-3,4-dihydropyrido[4,3-d]pyrimidin-2(1H)-one]?
A: FGFR1/FGFR3: >1; FGFR4/FGFR3: >5

Q: Which results are given for COc1cc(OC)c(F)c(N2Cc3cnc(-c4cn(CCN5CCOCC5)nc4C)cc3C3(CC3)C2=O)c1F [Example 52, 2′-(2,6-difluoro-3,5-dimethoxyphenyl)-6′-(3-methyl-1-(2-morpholinoethyl)-1H-pyrazol-4-yl)-1′H-spiro[cyclopropane-1,4′-[2,7]naphthyridin]-3′(2′H)-one]?
A: FGFR1/FGFR3: >10; FGFR4/FGFR3: >1

Q: Which results are given for COc1cc(OC)c(F)c(N2Cc3cnc(-c4cnn(CCCN5CCOCC5)c4)cc3C3(CC3)C2=O)c1F [Example 151, 2′-(2,6-difluoro-3,5-dimethoxyphenyl)-6′-(1-(3-morpholinopropyl)-1H-pyrazol-4-yl)-1′H-spiro[cyclopropane-1,4′-[2,7]naphthyridin]-3′(2′H)-one]?
A: FGFR1/FGFR3: >5; FGFR4/FGFR3: >5

Q: How did the FGFR1/FGFR3 turn out when COC(=O)Nc1ccc(N2C(=O)N(c3c(F)c(OC)cc(OC)c3F)Cc3cnc(-c4cn(C)nc4C)cc32)cc1 [Example 123, Methyl 4-(3-(2,6-difluoro-3,5-dimethoxyphenyl)-7-(1,3-dimethyl-1H-pyrazol-4-yl)-2-oxo-3,4-dihydropyrido[4,3-d]pyrimidin-1(2H)-yl)phenylcarbamate] was run?
A: >5

Q: What about the FGFR4/FGFR3 of the same compound?
A: >3

Q: Which results are given for COc1cc(OC)c(F)c(N2Cc3cnc(-c4cn(C)nc4C)cc3N(c3ccncn3)C2=O)c1F [Example 45, 3-(2,6-difluoro-3,5-dimethoxyphenyl)-7-(1,3-dimethyl-1H-pyrazol-4-yl)-1-pyrimidin-4-yl-3,4-dihydropyrido[4,3-d]pyrimidin-2(1H)-one]?
A: FGFR1/FGFR3: >10; FGFR4/FGFR3: >10

Q: Which FGFR1/FGFR3 does the source give for COc1cc(OC)c(F)c(N2Cc3cnc(-c4cn(CCN(C)C)nc4C)cc3C3(CC3)C2=O)c1F [Example 164, 2′-(2,6-difluoro-3,5-dimethoxyphenyl)-6′-(1-(2-(dimethylamino)ethyl)-3-methyl-1H-pyrazol-4-yl)-1′H-spiro[cyclopropane-1,4′-[2,7]naphthyridin]-3′(2′H)-one] here?
A: >3

Q: And the FGFR4/FGFR3?
A: >3

Q: What does the source list for COc1cc(OC)c(F)c(N2Cc3cnc(-c4cn(C)nc4C)cc3N(Cc3ccc(C#N)nc3)C2=O)c1F [Example 74, 5-((3-(2,6-difluoro-3,5-dimethoxyphenyl)-7-(1,3-dimethyl-1H-pyrazol-4-yl)-2-oxo-3,4-dihydropyrido[4,3-d]pyrimidin-1(2H)-yl)methyl)picolinonitrile]?
A: FGFR1/FGFR3: >5; FGFR4/FGFR3: >5

Q: Which results are given for COc1cc(OC)c(F)c(N2Cc3cnc(-c4cn(C)nc4C)cc3N(c3ccc4ncsc4c3)C2=O)c1F [Example 41, 1-(1,3-benzothiazol-6-yl)-3-(2,6-difluoro-3,5-dimethoxyphenyl)-7-(1,3-dimethyl-1H-pyrazol-4-yl)-3,4-dihydropyrido[4,3-d]pyrimidin-2(1H)-one]?
A: FGFR1/FGFR3: >1; FGFR4/FGFR3: >5

Q: For CCN1C(=O)N(c2c(F)c(OC)cc(OC)c2F)Cc2cnc(-c3ccc(C(=O)NCCO)nc3)cc21 [Example 177, 5-(3-(2,6-difluoro-3,5-dimethoxyphenyl)-1-ethyl-2-oxo-1,2,3,4-tetrahydropyrido[4,3-d]pyrimidin-7-yl)-N-(2-hydroxyethyl)picolinamide], which FGFR1/FGFR3 is on record?
A: >5

Q: What about the FGFR4/FGFR3 of the same compound?
A: >10

Q: COc1cc(OC)c(F)c(N2Cc3cnc(-c4cn(C)nc4C)cc3N(CC3CCOCC3)C2=O)c1F [Example 37, 3-(2,6-difluoro-3,5-dimethoxyphenyl)-7-(1,3-dimethyl-1H-pyrazol-4-yl)-1-((tetrahydro-2H-pyran-4-yl)methyl)-3,4-dihydropyrido[4,3-d]pyrimidin-2(1H)-one] was tested. Which FGFR1/FGFR3 did it give?
A: >1

Q: And the FGFR4/FGFR3?
A: >10

Q: For CCN1C(=O)N(c2c(F)c(OC)cc(OC)c2F)Cc2cnc(-c3cn(CC(=O)N4CCOCC4)nc3C)cc21 [Example 51, 3-(2,6-difluoro-3,5-dimethoxyphenyl)-1-ethyl-7-(3-methyl-1-(2-morpholino-2-oxoethyl)-1H-pyrazol-4-yl)-3,4-dihydropyrido[4,3-d]pyrimidin-2(1H)-one], which FGFR1/FGFR3 is on record?
A: >1

Q: And the FGFR4/FGFR3?
A: >1

Q: With COc1cc(OC)c(F)c(N2Cc3cnc(-c4cn(C)nc4C)cc3N(c3cccnc3)C2=O)c1F [Example 86, 3-(2,6-difluoro-3,5-dimethoxyphenyl)-7-(1,3-dimethyl-1H-pyrazol-4-yl)-1-(pyridin-3-yl)-3,4-dihydropyrido[4,3-d]pyrimidin-2(1H)-one] as the compound, how does the FGFR1/FGFR3 read?
A: >5

Q: What about the FGFR4/FGFR3 of the same compound?
A: >10

Q: COc1cc(OC)c(F)c(N2Cc3cnc(-c4cn(C)nc4C)cc3N(c3cn[nH]c3)C2=O)c1F [Example 129, 3-(2,6-difluoro-3,5-dimethoxyphenyl)-7-(1,3-dimethyl-1H-pyrazol-4-yl)-1-(1H-pyrazol-4-yl)-3,4-dihydropyrido[4,3-d]pyrimidin-2(1H)-one] was tested. Which FGFR1/FGFR3 did it give?
A: >5

Q: What about the FGFR4/FGFR3 of the same compound?
A: >10

From patent US11173162B2, “Bicyclic heterocycles as FGFR4 inhibitors” (Incyte Corporation, priority 2015, dated 2021)
